Reference: patent publication US9340559B2, “Proteasome inhibitor delanzomib for use in the treatment of lupus” (Cephalon, Inc., priority 2011, dated 2016)
Read-outs that look alike come from different tables or passages of the source.

Columns and labels:
NZM mice [1] = assay: Serum C3 complement ELISA, NZM mice (Example 2)
NZM mice [2] = assay: Collagen type-I cross-linker (CTx) bone resorption biomarker ELISA, serum of NZM mice; type: in vivo, mouse
Protocol: Assay is performed as instructed by the manufacturer. Briefly, biotinylated ratlaps antigen is first added in each well of a 96-well ELISA plate. This plate is covered and incubated for 30 minutes at RT. Plate is washed five times with washing solution and incubated with standards or unknown samples in appropriate wells followed by primary Ab. Incubate overnight for 18 hours at 4° C. followed by washing with buffer. Secondary incubation includes a peroxidase conjugated goat anti-rabbit IgG added to each well and incubation at RT for 1 hour. Incubation with chromogenic substrate solution for 15 minutes at RT in the dark develops the plate for analysis. Stopping solution halts the reaction, absorbance is measured within 2 hours at 450 nm.

NZM mice [3] = type: in vivo, mouse

CC(C)C[C@H](NC(=O)[C@@H](NC(=O)c1cccc(-c2ccccc2)n1)[C@@H](C)O)B(O)O [COMPOUND A, [(1R)-1-[[(2S,3R)-3-hydroxy-2-[6-phenyl-pyridine-2-carbonyl)amino]-1-oxobutyl]amino]-3-methylbutylboronic acid]
P < 0.001: p, serum IL-13 concentration vs G7 CTX 50 mg/kg 1× wk ip (NZM mice [3]; G2 3 mg/kg 2× wk ip)
p < 0.01: p, serum C3 complement levels vs G6 Bortezomib 0.3 mg/kg 2× wk ip (NZM mice [1]; G1 3 mg/kg 1× wk ip) | p, serum IL-17A concentration vs G6 Bortezomib 0.3 mg/kg 2× wk ip (NZM mice [3]; G1 3 mg/kg 1× wk ip) | p, serum IL-12p40/p70 concentration vs G9 Vehicle 1× wk ip (NZM mice [3]; G2 3 mg/kg 2× wk ip)
p < 0.001: p, serum C3 complement levels vs G7 CTX 50 mg/kg 1× wk ip (NZM mice [1]; G1 3 mg/kg 1× wk ip) | p, serum IL-12p40/p70 concentration vs G9 Vehicle 1× wk ip (NZM mice [3]; G1 3 mg/kg 1× wk ip) | p, serum IL-13 concentration vs G7 CTX 50 mg/kg 1× wk ip (NZM mice [3]; G1 3 mg/kg 1× wk ip) | p, serum IL-17A concentration vs G7 CTX 50 mg/kg 1× wk ip (NZM mice [3]; G1 3 mg/kg 1× wk ip) | p, serum IP-10 concentration vs G7 CTX 50 mg/kg 1× wk ip (NZM mice [3]; G1 3 mg/kg 1× wk ip) | p, serum MIG concentration vs G7 CTX 50 mg/kg 1× wk ip (NZM mice [3]; G1 3 mg/kg 1× wk ip)
−55%: Cytokine MIG AUC, percent change vs vehicle (NZM mice [3]; G1 3 mg/kg ip, 1× wk)
no change in CTx levels: serum CTx levels compared to vehicle (NZM mice [2]; treatment groups)
83%: serum IL-12p40/p70 decrease vs vehicle (NZM mice [3]; G1: 3 mg/kg ip once per week)
p < 0.05: p, serum C3 complement levels vs G9 Vehicle 2× wk po (NZM mice [1]; G1 3 mg/kg 1× wk ip) | p, serum C3 complement levels vs G7 CTX 50 mg/kg 1× wk ip (NZM mice [1]; G2 3 mg/kg 2× wk ip)
32%: Serum C3 complement AUC, percent change vs vehicle (NZM mice [1]; G2 3 mg/kg ip, 2× wk)
−40%: Serum CTx linker AUC, percent change vs vehicle (NZM mice [2]; G2 3 mg/kg ip, 2× wk)
−61%: Cytokine TNFα AUC, percent change vs vehicle (NZM mice [3]; G1 3 mg/kg ip, 1× wk)
−27%: Cytokine IL-13 AUC, percent change vs vehicle (NZM mice [3]; G1 3 mg/kg ip, 1× wk)
+17%: Cytokine IP-10 AUC, percent change vs vehicle (NZM mice [3]; G1 3 mg/kg ip, 1× wk)
45%: Serum C3 complement AUC, percent change vs vehicle (NZM mice [1]; G1 3 mg/kg ip, 1× wk) | serum C3 increase above vehicle (NZM mice [1]; once weekly)
NS (NS = not significant (p > 0.05)): p, serum IL-12p40/p70 concentration vs G5 Bortezomib 0.3 mg/kg 1× wk ip (NZM mice [3]; G1 3 mg/kg 1× wk ip) | p, serum IL-12p40/p70 concentration vs G6 Bortezomib 0.3 mg/kg 2× wk ip (NZM mice [3]; G1 3 mg/kg 1× wk ip) | p, serum IL-12p40/p70 concentration vs G7 CTX 50 mg/kg 1× wk ip (NZM mice [3]; G1 3 mg/kg 1× wk ip) | p, serum IL-12p40/p70 concentration vs G8 Dex 1.5 mg/kg 3× wk ip (NZM mice [3]; G1 3 mg/kg 1× wk ip) | p, serum IL-13 concentration vs G5 Bortezomib 0.3 mg/kg 1× wk ip (NZM mice [3]; G1 3 mg/kg 1× wk ip) | p, serum IL-13 concentration vs G6 Bortezomib 0.3 mg/kg 2× wk ip (NZM mice [3]; G1 3 mg/kg 1× wk ip) | p, serum IL-13 concentration vs G8 Dex 1.5 mg/kg 3× wk ip (NZM mice [3]; G1 3 mg/kg 1× wk ip) | p, serum IL-13 concentration vs G9 Vehicle 1× wk ip (NZM mice [3]; G1 3 mg/kg 1× wk ip) | p, serum IL-17A concentration vs G5 Bortezomib 0.3 mg/kg 1× wk ip (NZM mice [3]; G1 3 mg/kg 1× wk ip) | p, serum IL-17A concentration vs G8 Dex 1.5 mg/kg 3× wk ip (NZM mice [3]; G1 3 mg/kg 1× wk ip) | p, serum IL-17A concentration vs G9 Vehicle 1× wk ip (NZM mice [3]; G1 3 mg/kg 1× wk ip) | p, serum IP-10 concentration vs G5 Bortezomib 0.3 mg/kg 1× wk ip (NZM mice [3]; G1 3 mg/kg 1× wk ip) | p, serum IP-10 concentration vs G6 Bortezomib 0.3 mg/kg 2× wk ip (NZM mice [3]; G1 3 mg/kg 1× wk ip) | p, serum IP-10 concentration vs G8 Dex 1.5 mg/kg 3× wk ip (NZM mice [3]; G1 3 mg/kg 1× wk ip) | p, serum IP-10 concentration vs G9 Vehicle 1× wk ip (NZM mice [3]; G1 3 mg/kg 1× wk ip) | p, serum MIG concentration vs G5 Bortezomib 0.3 mg/kg 1× wk ip (NZM mice [3]; G1 3 mg/kg 1× wk ip) | p, serum MIG concentration vs G6 Bortezomib 0.3 mg/kg 2× wk ip (NZM mice [3]; G1 3 mg/kg 1× wk ip) | p, serum MIG concentration vs G8 Dex 1.5 mg/kg 3× wk ip (NZM mice [3]; G1 3 mg/kg 1× wk ip) | p, serum MIG concentration vs G9 Vehicle 1× wk ip (NZM mice [3]; G1 3 mg/kg 1× wk ip) | p, serum TNFα concentration vs G5 Bortezomib 0.3 mg/kg 1× wk ip (NZM mice [3]; G1 3 mg/kg 1× wk ip) | p, serum TNFα concentration vs G6 Bortezomib 0.3 mg/kg 2× wk ip (NZM mice [3]; G1 3 mg/kg 1× wk ip) | p, serum TNFα concentration vs G7 CTX 50 mg/kg 1× wk ip (NZM mice [3]; G1 3 mg/kg 1× wk ip) | p, serum TNFα concentration vs G9 Vehicle 1× wk ip (NZM mice [3]; G1 3 mg/kg 1× wk ip) | p, serum IL-12p40/p70 concentration vs G5 Bortezomib 0.3 mg/kg 1× wk ip (NZM mice [3]; G2 3 mg/kg 2× wk ip) | p, serum IL-12p40/p70 concentration vs G6 Bortezomib 0.3 mg/kg 2× wk ip (NZM mice [3]; G2 3 mg/kg 2× wk ip) | p, serum IL-12p40/p70 concentration vs G7 CTX 50 mg/kg 1× wk ip (NZM mice [3]; G2 3 mg/kg 2× wk ip) | p, serum IL-12p40/p70 concentration vs G8 Dex 1.5 mg/kg 3× wk ip (NZM mice [3]; G2 3 mg/kg 2× wk ip) | p, serum IL-13 concentration vs G5 Bortezomib 0.3 mg/kg 1× wk ip (NZM mice [3]; G2 3 mg/kg 2× wk ip) | p, serum IL-13 concentration vs G6 Bortezomib 0.3 mg/kg 2× wk ip (NZM mice [3]; G2 3 mg/kg 2× wk ip)
−41%: Serum CTx linker AUC, percent change vs vehicle (NZM mice [2]; G1 3 mg/kg ip, 1× wk) | Cytokine IL-17A AUC, percent change vs vehicle (NZM mice [3]; G1 3 mg/kg ip, 1× wk)
p <0.001: p, serum TNFα concentration vs G8 Dex 1.5 mg/kg 3× wk ip (NZM mice [3]; G1 3 mg/kg 1× wk ip)
P < 0.01: p, serum concentration of collagen type I cross-linker vs G8 Dex 1.5 mg/kg 3× wk ip (NZM mice [2]; G1 3 mg/kg 1× wk ip) | p, serum concentration of collagen type I cross-linker vs G8 Dex 1.5 mg/kg 3× wk ip (NZM mice [2]; G2 3 mg/kg 2× wk ip)
−83%: Cytokine IL-12 AUC, percent change vs vehicle (NZM mice [3]; G1 3 mg/kg ip, 1× wk)
